Results taken from US20110046130A1, “TETRAHYDRONAPHTHYRIDINES AND AZA DERIVATIVES THEREOF AS HISTAMINE H3 RECEPTOR ANTAGONISTS” (Evotec AG, priority 2008, published 2011).
pIC50: −log10 of the molar value.

The compounds below were run against T1, human H3 receptors (Homo sapiens, UniProt Q9Y5N1) (assay: cAMP quantification protocol for human H3 receptor testing). Conditions: inhibition of agonist-induced (100 nM histamine, 10 μM forskolin) decrease of intracellular cAMP; CHO-K1 cell line expressing human H3 receptors; read-out: Potency range (IC50 values).
T1 construct: host or cells: CHO-K1
T1 sequence (Q9Y5N1 whole entry): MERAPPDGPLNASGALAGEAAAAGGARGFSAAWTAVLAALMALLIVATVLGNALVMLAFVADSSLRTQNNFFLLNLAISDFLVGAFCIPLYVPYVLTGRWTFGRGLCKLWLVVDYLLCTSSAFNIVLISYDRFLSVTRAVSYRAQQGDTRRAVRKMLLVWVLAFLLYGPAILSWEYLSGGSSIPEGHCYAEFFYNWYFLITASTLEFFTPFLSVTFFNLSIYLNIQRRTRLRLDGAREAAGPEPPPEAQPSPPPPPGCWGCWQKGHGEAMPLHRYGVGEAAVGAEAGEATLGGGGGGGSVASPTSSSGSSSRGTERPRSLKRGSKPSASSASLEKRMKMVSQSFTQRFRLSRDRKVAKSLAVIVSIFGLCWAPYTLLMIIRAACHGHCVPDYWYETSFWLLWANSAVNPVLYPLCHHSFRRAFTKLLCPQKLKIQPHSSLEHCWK
Type: cell-based
Experimental: CHO-K1 cell line expressing human H3 receptors were purchased from Euroscreen (Gosselies, Belgium, Cat. no.: ES-392-C)
Human H3 receptor-expressing cell-lines were grown in Ham's F12 [Sigma, Cat. no. N6658], supplemented with 10% FBS [Sigma, Cat. no. F9665], 400 μg/ml G418 [Sigma, Cat. no. N1876] and 250 μg/ml Zeocin [Invitrogen, Cat. no. 46-0509]) according to the protocol provided by Euroscreen.
cAMP Quantification Protocol for Human H3 Receptor Testing
The assay measures the ability of test compounds to inhibit Histamine receptor agonist-induced decrease of intracellular free cAMP (receptor is Gi coupled).
Specifically, a cAMP quantification assay system from DiscoveRx (cAMP XS+; Cat. no. 90-0075) was used.
For the cAMP assay, confluent cells were detached from the culture vessels with 1× trypsin-EDTA solution (Sigma), and seeded into 384-well Costar plates (white, clear bottom, Cat. no. 3707) at a density of 10,000 cells per well. Cells were seeded in a volume of 50 μl in medium without antibiotics and incubated overnight in a humidified atmosphere with 5% CO2 at 37° C. The cAMP assay was performed according to the protocol provided by DiscoveRx.
The cell culture medium was removed and the cells washed once with PBS (50 μl per well). The plates were emptied by inversion and 7.5 μl/well of compound in PBS (containing 1 mM IBMX and 0.03% BSA) were added and incubated for 30 min at 37° C.
Subsequent 7.5 μl/well specific agonist solution was added and the plates for another 30 min incubated at 37° C.
The following agonist solution is used:
100 nM histamine, 10 μM forskolin in PBS (containing 1 mM IBMX and 0.03% BSA)
After the incubation with the agonist, 5 μl/well cAMP XS antibody solution was added followed by 20 μl/well Gal/EII/Lysis(1:5:19)+ED (1:1). The plates were incubated for one hour at room temperature and afterwards 20 μl/well EA reagent was added. The luminescence was developed for approximately three hours at room temperature and the plates were read out using a ‘BMG Novostar’ plate reader.
Test compounds were assayed at 8 concentrations in triplicate. Serial 10-fold dilutions in 100% DMSO were made at a 100-times higher concentration than the final concentration and then diluted with a 2 step protocol in assay buffer to reach the required assay concentrations and 1% DMSO.

pIC50 | Structure (SMILES)
> 7.00 | O=C1CCCC2c3ccc(OC4CCN(C5CCCC5)CC4)nc3CCN12 (stereo not drawn) [Example 26, 3-[(1-Cyclopentylpiperidin-4-yl)oxy]-5,6,9,10,11,11a-hexahydro-8H-pyrido[2,1-f][1,6]naphthyridin-8-one]
> 7.00 | CC(C)N1CCC(Oc2ccc3c(n2)CCN2C(=O)CCCC32)CC1 (stereo not drawn) [Example 15, 3-{[1-(1-methylethyl)piperidin-4-yl]oxy}-5,6,9,10,11,11a-hexahydro-8H-pyrido[2,1-f][1,6]naphthyridin-8-one]
> 7.00 | O=C1CCCC2c3ccc(OC4CCN(C5CCC5)CC4)nc3CCN12 (stereo not drawn) [Example 14, 3-[(1-Cyclobutylpiperidin-4-yl)oxy]-5,6,9,10,11,11a-hexahydro-8H-pyrido[2,1-f][1,6]naphthyridin-8-one]
5.30 to 6.30 | CN1CCC(Oc2ccc3c(n2)CCN2C(=O)CCCC32)CC1 (stereo not drawn) [Example 23, 3-[(1-Methylpiperidin-4-yl)oxy]-5,6,9,10,11,11a-hexahydro-8H-pyrido[2,1-f][1,6]naphthyridin-8-one]
> 7.00 | O=C1CCCC2c3ccc(OC4CCN(CC5CC5)CC4)nc3CCN12 (stereo not drawn) [Example 33, 3-{[1-(cyclopropylmethyl)piperidin-4-yl]oxy}-5,6,9,10,11,11a-hexahydro-8H-pyrido[2,1-f][1,6]naphthyridin-8-one]
5.30 to 6.30 | O=C1CCCC2c3ccc(OCCCN4CCOCC4)nc3CCN12 (stereo not drawn) [Example 20, 3-(3-morpholin-4-ylpropoxy)-5,6,9,10,11,11a-hexahydro-8H-pyrido[2,1-f][1,6]naphthyridin-8-one]
> 7.00 | O=C1CCCC2c3ccc(OCCCN4CCCCC4)nc3CCN12 (stereo not drawn) [Example 19, 3-(3-piperidin-1-ylpropoxy)-5,6,9,10,11,11a-hexahydro-8H-pyrido[2,1-f][1,6]naphthyridin-8-one]
> 7.00 | O=C1CCC2c3ccc(OC4CCN(C5CCC5)CC4)nc3CCN12 (stereo not drawn) [Example 27, 3-[(1-Cyclobutylpiperidin-4-yl)oxy]-5,9,10,10a-tetrahydropyrrolo[2,1-f][1,6]naphthyridin-8(6H)-one]
> 7.00 | CC(C)N1CCC(Oc2nc3c(cc2C#N)C2CCCC(=O)N2CC3)CC1 (stereo not drawn) [Example 30, 3-{[1-(1-methylethyl)piperidin-4-yl]oxy}-8-oxo-5,8,9,10,11,11a-hexahydro-6H-pyrido[2,1-f][1,6]naphthyridine-2-carbonitrile]
> 7.00 | N#Cc1cc2c(nc1OC1CCN(C3CCC3)CC1)CCN1C(=O)CCCC21 (stereo not drawn) [Example 29, 3-[(1-Cyclobutylpiperidin-4-yl)oxy]-8-oxo-5,8,9,10,11,11a-hexahydro-6H-pyrido[2,1-f][1,6]naphthyridine-2-carbonitrile]
5.30 to 6.30 | O=C1CCCC2c3ccc(OCCN4CCCCC4)nc3CCN12 (stereo not drawn) [Example 24, 3-(2-piperidin-1-ylethoxy)-5,6,9,10,11,11a-hexahydro-8H-pyrido[2,1-f][1,6]naphthyridin-8-one]
> 7.00 | CN1CCc2nc(OC3CCN(C4CCC4)CC3)ncc2C1 [Example 13, 2-[(1-Cyclobutylpiperidin-4-yl)oxy]-6-methyl-5,6,7,8-tetrahydropyrido[4,3-d]pyrimidine]
5.30 to 6.30 | O=C1CCCC2c3ccc(O[C@H]4CCN(C5CCC5)C4)nc3CCN12 (mixture of isomers) [Example 17, 3-{[(3S)-1-cyclobutylpyrrolidin-3-yl]oxy}-5,6,9,10,11,11a-hexahydro-8H-pyrido[2,1-f][1,6]naphthyridin-8-one]
6.30 to 7.00 | O=C1CCCC2c3ccc(O[C@H]4CCN(C5CCCC5)C4)nc3CCN12 (stereo partly drawn) [Example 21, 3-{[(3S)-1-cyclopentylpyrrolidin-3-yl]oxy}-5,6,9,10,11,11a-hexahydro-8H-pyrido[2,1-f][1,6]naphthyridin-8-one]
> 7.00 | O=C1CCCC2c3ccc(OC4CCN(C5CCCCC5)CC4)nc3CCN12 (stereo not drawn) [Example 22, 3-[(1-Cyclohexylpiperidin-4-yl)oxy]-5,6,9,10,11,11a-hexahydro-8H-pyrido[2,1-f][1,6]naphthyridin-8-one]
> 7.00 | O=C1CCCC2c3ccc(OCCCN4CCCC4)nc3CCN12 (stereo not drawn) [Example 18, 3-(3-pyrrolidin-1-ylpropoxy)-5,6,9,10,11,11a-hexahydro-8H-pyrido[2,1-f][1,6]naphthyridin-8-one]
> 7.00 | O=C1CCC2c3ccc(OC4CCN(C5CCCC5)CC4)nc3CCN12 (stereo not drawn) [Example 28, 3-[(1-Cyclopentylpiperidin-4-yl)oxy]-5,9,10,10a-tetrahydropyrrolo[2,1-f][1,6]naphthyridin-8(6H)-one]
6.30 to 7.00 | O=C1CCCC2c3ccc(O[C@@H]4CCN(C5CCC5)C4)nc3CCN12 (mixture of isomers) [Example 16, 3-{[(3R)-1-cyclobutylpyrrolidin-3-yl]oxy}-5,6,9,10,11,11a-hexahydro-8H-pyrido[2,1-f][1,6]naphthyridin-8-one]
> 7.00 | CN1CCc2nc(OC3CCN(C4CCC4)CC3)c(C#N)cc2C1 [Example 12, 2-[(1-Cyclobutylpiperidin-4-yl)oxy]-6-methyl-5,6,7,8-tetrahydro-1,6-naphthyridine-3-carbonitrile]

More lines, now with the values behind:

Structure (SMILES) | pIC50
CC(C)N1CCC(N(C)c2ccc3c(n2)CCN2C(=O)CCCC32)CC1 (stereo not drawn) [Example 32, 3-{methyl[1-(1-methylethyl)piperidin-4-yl]amino}-5,6,9,10,11,11a-hexahydro-8H-pyrido[2,1-f][1,6]naphthyridin-8-one] | > 7.00
CN(c1nc2c(cc1C#N)C1CCCC(=O)N1CC2)C1CCN(C2CCC2)CC1 (stereo not drawn) [Example 31, 3-[(1-cyclobutylpiperidin-4-yl)(methyl)amino]-8-oxo-5,8,9,10,11,11a-hexahydro-6H-pyrido[2,1-f][1,6]naphthyridine-2-carbonitrile] | > 7.00
CN1CCc2nc(O[C@@H]3CCN(C4CCCC4)C3)ccc2C1 [Example 3, 2-{[(3R)-1-Cyclopentylpyrrolidin-3-yl]oxy}-6-methyl-5,6,7,8-tetrahydro-1,6-naphthyridine] | 6.30 to 7.00
CN1CCc2nc(O[C@H]3CCN(C4CCC4)C3)ccc2C1 [Example 6, 2-{[(3S)-1-Cyclobutylpyrrolidin-3-yl]oxy}-6-methyl-5,6,7,8-tetrahydro-1,6-naphthyridine] | 5.30 to 6.30
CN1CCc2nc(OC3CCN(C4CCC4)CC3)ccc2C1 [Example 1, 2-[(1-Cyclobutylpiperidin-4-yl)oxy]-6-methyl-5,6,7,8-tetrahydro-1,6-naphthyridine] | > 7.00
CN1CCc2nc(O[C@@H]3CCN(C4CCC4)C3)ccc2C1 [Example 5, 2-{[(3R)-1-Cyclobutylpyrrolidin-3-yl]oxy}-6-methyl-5,6,7,8-tetrahydro-1,6-naphthyridine] | 6.30 to 7.00
O=C1CCCC2c3ccc(OCCCCN4CCCCC4)nc3CCN12 (stereo not drawn) [Example 25, 3-(4-piperidin-1-ylbutoxy)-5,6,9,10,11,11a-hexahydro-8H-pyrido[2,1-f][1,6]naphthyridin-8-one] | 6.30 to 7.00
CN1CCc2nc(O[C@H]3CCN(C4CCCC4)C3)ccc2C1 [Example 4, 2-{[(3S)-1-Cyclopentylpyrrolidin-3-yl]oxy}-6-methyl-5,6,7,8-tetrahydro-1,6-naphthyridine] | 6.30 to 7.00
CC(C)N1CCC(Oc2ccc3c(n2)CCN(C)C3)CC1 [Example 8, 6-Methyl-2-{[1-(1-methylethyl)piperidin-4-yl]oxy}-5,6,7,8-tetrahydro-1,6-naphthyridine] | > 7.00
CN1CCc2nc(OC3CCN(C4CCCC4)CC3)ccc2C1 [Example 2, 2-[(1-Cyclopentylpiperidin-4-yl)oxy]-6-methyl-5,6,7,8-tetrahydro-1,6-naphthyridine] | > 7.00
CN1CCc2nc(OC3CCN(C4CC4)CC3)c(C#N)cc2C1 [Example 11, 2-[(1-Cyclopropylpiperidin-4-yl)oxy]-6-methyl-5,6,7,8-tetrahydro-1,6-naphthyridine-3-carbonitrile] | > 7.00
CN1CCc2nc(OCCCN3CCCC3)ccc2C1 [Example 7, 6-Methyl-2-(3-pyrrolidin-1-ylpropoxy)-5,6,7,8-tetrahydro-1,6-naphthyridine] | > 7.00
CN1CCC(Oc2ccc3c(n2)CCN(C)C3)CC1 [Example 9, 6-Methyl-2-[(1-methylpiperidin-4-yl)oxy]-5,6,7,8-tetrahydro-1,6-naphthyridine] | 5.30 to 6.30
CC(C)N1CCC(Oc2nc3c(cc2C#N)CN(C)CC3)CC1 [Example 10, 6-Methyl-2-{[1-(1-methylethyl)piperidin-4-yl]oxy}-5,6,7,8-tetrahydro-1,6-naphthyridine-3-carbonitrile] | > 7.00
